The test system of this data set is Kornkäfer (sitophilus granarius L). Briefly: whole plant or invertebrate. The class given is in vivo. The settings on record: for Synergistischer Faktor bei Ripcord: amine 1 mg/ml + Ripcord 0,01 mg/ml; for Synergistischer Faktor bei Talcord: amine 1 mg/ml + Talcord 0,01 mg/ml; for Wirksamkeit in % Substanz allein: amine 1 mg/ml in Aceton mixed 1 : 1 with Aceton, 2 ml per dish, 25 weevils, dead counted after 3 h; for Wirksamkeit in % Substanz +Ripcord: amine 1 mg/ml mixed 1 : 1 with Ripcord 0,01 mg/ml; for Wirksamkeit in % Substanz +Talcord: amine 1 mg/ml mixed 1 : 1 with Talcord 0,01 mg/ml. Put shortly:
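Acetone solutions (2 ml) were dried as films in 15 cm Petri dishes and 25 grain weevils added per dish, with a filter inserted after 1 h. Dead beetles were counted at 3 h at 19–21 °C, and % mortality and the synergistic factor were derived.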

In the case of `CCOC(=O)C(c1ccccc1)N1CCCC1` (centres unmarked) [Phenyl-N-pyrrolidin-essigsäure-ethylester], the “Synergistischer Faktor bei Ripcord” value was 2,92, the “Synergistischer Faktor bei Talcord” value is recorded as 2,60 and the “Wirksamkeit in % Substanz allein” value is recorded as 0%. Also, where the note is “3 h”, the “Wirksamkeit in % Substanz +Ripcord” value is listed as 92,0% and the “Wirksamkeit in % Substanz +Talcord” value is 25,2%.

As for `CC1(C)C(C=C(Cl)Cl)C1C(=O)OC(C#N)c1cccc(Oc2ccccc2)c1` (centres unmarked) [Ripcord, reference compound], the “Wirksamkeit von Ripcord” value (Ripcord alone, 0,01 mg/ml mixed 1 : 1 with Aceton, 3 h) is on record as “Wirksamkeit von Ripcord: 31,5%”.

In the case of `CC1(C)C(C=C(Cl)Cl)C1C(=O)OCc1cccc(Oc2ccccc2)c1` (centres unmarked) [Talcord, reference compound], for the setting “Talcord alone, 0,01 mg/ml mixed 1 : 1 with Aceton, 3 h”, the “Wirksamkeit von Talcord” value is “Wirksamkeit von Talcord: 9,7%”.

Turning to `CCC/C=C(\CC)CN1CCCC1` [cis-3-N-pyrrolidino-methyl-hepten-(3)], the “Synergistischer Faktor bei Ripcord” value is 1,61, the “Synergistischer Faktor bei Talcord” value is 1,65 and the “Wirksamkeit in % Substanz allein” value is 0%. Further, for the setting “3 h”, the “Wirksamkeit in % Substanz +Ripcord” value is recorded as 50,8% and the “Wirksamkeit in % Substanz +Talcord” value is given as 16,0%.

Regarding `CC(C)=CCC/C(C)=C\CN1CCCCC1` [cis-8-N-Piperidino-2,6-di-methyl-octadien-(2,6)], the “Synergistischer Faktor bei Ripcord” value was 2,16, the “Synergistischer Faktor bei Talcord” value was 2,76 and the “Wirksamkeit in % Substanz allein” value is recorded as 0%. Further, under “3 h”, the “Wirksamkeit in % Substanz +Ripcord” value is reported as 68,0% and the “Wirksamkeit in % Substanz +Talcord” value is given as 26,8%.

Turning to N-Hydrinden-morpholin, the “Synergistischer Faktor bei Ripcord” value is 1,40, the “Synergistischer Faktor bei Talcord” value is recorded as 3,17 and the “Wirksamkeit in % Substanz allein” value worked out at 0%. Also, where the note is “3 h”, the “Wirksamkeit in % Substanz +Ripcord” value is recorded as 44,0% and the “Wirksamkeit in % Substanz +Talcord” value is 30,8%.

Consider N-Hydrinden-piperidin, for which the “Synergistischer Faktor bei Ripcord” value was 1,36, the “Synergistischer Faktor bei Talcord” value is reported as 5,90 and the “Wirksamkeit in % Substanz allein” value was found to be 0%. Besides, for the setting “3 h”, the “Wirksamkeit in % Substanz +Ripcord” value is reported as 42,8% and the “Wirksamkeit in % Substanz +Talcord” value is 57,2%.

Take N-Lactosido-pyrrolidin: the “Synergistischer Faktor bei Ripcord” value is given as 2,70, the “Synergistischer Faktor bei Talcord” value is recorded as 2,06 and the “Wirksamkeit in % Substanz allein” value was 0%. For the same molecule, where the note is “3 h”, the “Wirksamkeit in % Substanz +Ripcord” value is recorded as 85,2% and the “Wirksamkeit in % Substanz +Talcord” value is 20,0%.
